Cell death, cell viability and glucocorticoid induced apoptosis data for one molecule are collected here from US20120122991A1, “METHOD FOR TREATING CANCER BY INCREASING AMP-ACTIVATED KINASE ACTIVITY” (Dana-Farber Cancer Institute, Inc., priority 2003, published 2012).

Experiment [1] concerns HeLa cells. The experiment can be described thus: Cell survival (MTT assay, phase contrast) of HeLa cells stably expressing vector, WT or KD LKB1. The experiment is classed as cell-based, human. The note with it: 2.5 mM AICAR, within 8 h. On the procedure:
Results are representative of four independent experiments. Cell viability was determined following AICAR or UV expressed as a percentage of untreated controls. Cell viability quantified by MTT assays run in triplicate on indicated HeLa stable cell lines treated with 2.5 mM AICAR or 50 j/cm^2 UV for 8 h. Results are representative of two independent experiments.
Kinase Assays and Cellular Analysis: AMPK kinase activity was measured using the SAMS peptide as previously described (7). LKB1 phosphorylation of AMPK was carried out in kinase buffer (50 mM Tris pH 7.5, 10 mM MgCl2, 1 mM DTT, 100 μM ATP) for 20 mins at 30° C. For immunopreciptations of active LKB1 kinase, Flag-tagged LKB1 was co-transfected with an equimolar amount of STRAD expression plasmid into HT1080 cells and immunoprecipitated using M2-agarose (Sigma) 24 h post-transfection in NP40 lysis buffer26. Before kinase assays, immunoprecipitated LKB1 was washed 3× in lysis buffer then 2× in kinase buffer. Soluble MBP-AMPK was added at 5 μg per kinase reaction. […]
To determine if LKB1 can mediate a biological response to a stimulus that activates the AMPKK/AMPK cascade we investigated whether LKB1 might modulate cell death under circumstances where AMPK would be activated. […] The extent of cell survival conferred by LKB1 reconstitution in the HeLa cells was quantified by MTT assay (FIG. 5b,c).
(Tetrazolium assays rely on reduction of a dye to a coloured formazan, in cell work by metabolically active cells.)

Experiment [2] has as its system quiescent cells. The note with it: cited from earlier work.

Turning to `NC(=O)c1ncn([C@@H]2O[C@H](CO)[C@@H](O)[C@H]2O)c1N` [AICAR, 5-aminoimidazole-4-carboxamide 1-β-D-ribofuranoside], the cell death entry in experiment [1] (vector control and kinase-dead LKB1 expressing HeLa cells) is recorded as “extensive cell death”. In addition, the cell viability result in experiment [1] (wild-type LKB1 expressing HeLa cells) was “nearly totally viable”. The glucocorticoid induced apoptosis entry in experiment [2] is reported as “protects them from glucocorticoid induced apoptosis”.
